Earlier results as cited in patent publication US20250009647A1, “PHARMACEUTICAL COMPOSITION” (priority 2021, published 2025).

Tests used:
[1] = in water
[2] = in DMSO

pKa(H2O) [1]	Compound	pKa(DMSO) [2]
0.99	NS(=O)(=O)O [Sulfamic acid]	6.5
2.67	O=C(O)c1cc2ccccc2c(Cc2c(O)c(C(=O)O)cc3ccccc23)c1O [Pamoic acid]	

Compound	pKa(H2O) [1]	pKa(DMSO) [2]
O=C(O)C(=O)O [Oxalic acid]	1.46	6.2
